Measurements from PMC7604503, “Cyclic peptides can engage a single binding pocket through highly divergent modes” (Proceedings of the National Academy of Sciences of the …, 2020).
Where a SMILES comes first, the peptide text is derived from it. Bridges are numbered along the chain shown (N, C = ends).

Columns and labels:
[1] = system: BD1 domains (BRD2-BD1, BRD3-BD1, BRD4-BD1); test: SPR binding, stated for the BD1 domains together; design: species or system human
Procedure: We next assessed the ability of each of the three lead peptides to bind BRD3-BD1. […] To assess selectivity for other BET BDs, we used SPR to determine the binding affinity of each peptide toward the remaining BDs from BRD2, BRD3, and BRD4 (Fig. 1B). […]
Peptides were synthesised as C-terminal amides using standard fluorenylmethyloxycarbonyl (Fmoc)-strategy solid-phase chemistry using a Syro I automated synthesiser (Biotage) and NovaPEG Rink Amide resin (Novabiochem). Couplings were performed with HBTU/HOBt (1:1) and 6 equivalents of each amino acid. Double couplings were performed for arginine residues.
Following the final amino acid coupling reaction, the Fmoc group was removed and resin incubated with N-(chloroacetoxy)succinimide (0.2 M in DMF, 1 h, RT). Resin was washed with DMF (5 times) and DCM (5 times) and dried in vacuo.
Linear peptides were cleaved from the resin by incubation (3 h, RT) with a trifluoroacetic acid (TFA) cleavage cocktail (TFA/2,2’-(ethylenedioxy)diethanethiol/triisopropyl silane/H2O (92.5:2.5:2.5:2.5)) before filtration, concentration in vacuo and precipitation with ice-cold diethyl ether. Crude peptides were washed with diethyl ether (5 times), dried and resuspended in DMSO. The pH was raised to >8 using triethylamine to allow cyclisation. Following incubation (1 h, RT), peptides were re-acidified with TFA for purification.
Crude peptides were purified by reverse-phase high-performance liquid chromatography using a Chromolith Prep column (Merck) on a Prominence LC-20AP system (Shimadzu) (Solvent A: 0.1% TFA in H2O, Solvent B: 0.1% TFA in acetonitrile) to >95% purity as determined by mass spectrometry (Fig. S17). Purified peptides were reconstituted in DMSO and concentrations determined from their absorbance at 280 nm in 5% DMSO using predicted extinction coefficients.
Surface plasmon resonance (SPR)
Measurements were conducted on a T200 or S200 (GE Healthcare) and data analysed using the Biacore Insight Evaluation Software. Experiments were performed at 4 °C in single cycle kinetics mode. Biotinylated BET bromodomains were immobilised on a CAP chip (GE Healthcare) with a […]
pH 7.5 was used as the running buffer. […]

ATAD2A = target: T1, ATAD2A (Homo sapiens, UniProt Q6PL18); test: BROMOscan competition binding assay (BromoMAX, Eurofins DiscoverX); details: for Percent Control ATAD2A: compound concentration 1000 nM, lower percentage control = stronger affinity
T1 construct: purchased Eurofins DiscoverX (BROMOscan, BromoMAX)
T1 sequence (Q6PL18 1-1390): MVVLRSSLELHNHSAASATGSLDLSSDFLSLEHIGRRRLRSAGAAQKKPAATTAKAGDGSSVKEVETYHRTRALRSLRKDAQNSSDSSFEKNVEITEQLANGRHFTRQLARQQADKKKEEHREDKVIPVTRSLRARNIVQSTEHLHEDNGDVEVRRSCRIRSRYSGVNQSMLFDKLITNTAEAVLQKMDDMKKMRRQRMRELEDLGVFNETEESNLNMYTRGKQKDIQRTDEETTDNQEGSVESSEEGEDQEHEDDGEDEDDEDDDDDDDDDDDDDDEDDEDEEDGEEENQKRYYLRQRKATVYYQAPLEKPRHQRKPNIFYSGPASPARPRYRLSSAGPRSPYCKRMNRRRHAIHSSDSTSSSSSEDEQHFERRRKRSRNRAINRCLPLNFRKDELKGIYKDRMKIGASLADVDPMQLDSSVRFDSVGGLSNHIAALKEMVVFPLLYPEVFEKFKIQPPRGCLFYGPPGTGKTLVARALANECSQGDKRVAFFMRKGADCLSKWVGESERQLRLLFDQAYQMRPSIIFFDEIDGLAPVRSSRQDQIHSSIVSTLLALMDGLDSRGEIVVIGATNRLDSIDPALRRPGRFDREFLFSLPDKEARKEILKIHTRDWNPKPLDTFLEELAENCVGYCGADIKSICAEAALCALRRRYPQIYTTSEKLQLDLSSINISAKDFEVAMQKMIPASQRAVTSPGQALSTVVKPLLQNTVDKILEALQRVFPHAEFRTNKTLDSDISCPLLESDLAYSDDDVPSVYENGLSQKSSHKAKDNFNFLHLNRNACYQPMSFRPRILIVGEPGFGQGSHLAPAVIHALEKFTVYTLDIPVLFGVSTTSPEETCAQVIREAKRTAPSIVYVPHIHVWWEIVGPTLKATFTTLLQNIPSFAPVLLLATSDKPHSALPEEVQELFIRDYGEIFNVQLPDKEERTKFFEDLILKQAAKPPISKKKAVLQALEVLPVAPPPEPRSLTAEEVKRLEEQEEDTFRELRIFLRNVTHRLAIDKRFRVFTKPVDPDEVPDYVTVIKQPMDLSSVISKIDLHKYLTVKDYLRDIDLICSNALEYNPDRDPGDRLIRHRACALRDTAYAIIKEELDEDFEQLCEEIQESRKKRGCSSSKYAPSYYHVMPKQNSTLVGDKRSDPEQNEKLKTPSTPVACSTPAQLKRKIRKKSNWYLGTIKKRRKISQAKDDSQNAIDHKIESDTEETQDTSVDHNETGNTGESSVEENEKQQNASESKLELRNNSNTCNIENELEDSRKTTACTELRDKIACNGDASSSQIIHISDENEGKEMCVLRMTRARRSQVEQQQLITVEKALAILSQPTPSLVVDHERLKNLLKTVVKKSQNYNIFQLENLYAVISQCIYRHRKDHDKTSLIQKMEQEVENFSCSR

BRD9 = target: T2, BRD9 (Homo sapiens, UniProt Q9H8M2); test: as above; details: for Percent Control BRD9: compound concentration 1000 nM, lower percentage control = stronger affinity
T2 construct: purchased Eurofins DiscoverX (BROMOscan, BromoMAX)
T2 sequence (Q9H8M2 1-597): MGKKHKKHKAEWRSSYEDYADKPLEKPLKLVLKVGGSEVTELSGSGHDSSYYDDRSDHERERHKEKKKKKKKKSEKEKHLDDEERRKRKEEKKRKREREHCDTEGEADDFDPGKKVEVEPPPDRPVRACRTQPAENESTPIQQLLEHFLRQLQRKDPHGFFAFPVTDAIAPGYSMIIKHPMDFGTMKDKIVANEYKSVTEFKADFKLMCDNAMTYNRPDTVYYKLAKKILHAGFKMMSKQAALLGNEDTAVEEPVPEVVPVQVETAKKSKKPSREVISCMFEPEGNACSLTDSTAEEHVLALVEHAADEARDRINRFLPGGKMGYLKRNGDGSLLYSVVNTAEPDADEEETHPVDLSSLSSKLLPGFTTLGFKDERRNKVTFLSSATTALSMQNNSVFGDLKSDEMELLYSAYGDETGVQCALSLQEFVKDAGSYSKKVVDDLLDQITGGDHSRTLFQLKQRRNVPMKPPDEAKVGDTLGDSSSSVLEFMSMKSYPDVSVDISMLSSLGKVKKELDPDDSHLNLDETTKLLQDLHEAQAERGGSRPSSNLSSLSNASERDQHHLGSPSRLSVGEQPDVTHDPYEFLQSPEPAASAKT

EP300 = target: T3, EP300 (Homo sapiens, UniProt Q09472); test: as above; details: for Percent Control EP300: compound concentration 1000 nM, lower percentage control = stronger affinity
T3 construct: purchased Eurofins DiscoverX (BROMOscan, BromoMAX)

SMARCA4 = SMARCA4 (Homo sapiens, UniProt P51532); details: compound concentration 1000 nM; lower percentage control = stronger affinity
Sequence of SMARCA4 (P51532 whole entry): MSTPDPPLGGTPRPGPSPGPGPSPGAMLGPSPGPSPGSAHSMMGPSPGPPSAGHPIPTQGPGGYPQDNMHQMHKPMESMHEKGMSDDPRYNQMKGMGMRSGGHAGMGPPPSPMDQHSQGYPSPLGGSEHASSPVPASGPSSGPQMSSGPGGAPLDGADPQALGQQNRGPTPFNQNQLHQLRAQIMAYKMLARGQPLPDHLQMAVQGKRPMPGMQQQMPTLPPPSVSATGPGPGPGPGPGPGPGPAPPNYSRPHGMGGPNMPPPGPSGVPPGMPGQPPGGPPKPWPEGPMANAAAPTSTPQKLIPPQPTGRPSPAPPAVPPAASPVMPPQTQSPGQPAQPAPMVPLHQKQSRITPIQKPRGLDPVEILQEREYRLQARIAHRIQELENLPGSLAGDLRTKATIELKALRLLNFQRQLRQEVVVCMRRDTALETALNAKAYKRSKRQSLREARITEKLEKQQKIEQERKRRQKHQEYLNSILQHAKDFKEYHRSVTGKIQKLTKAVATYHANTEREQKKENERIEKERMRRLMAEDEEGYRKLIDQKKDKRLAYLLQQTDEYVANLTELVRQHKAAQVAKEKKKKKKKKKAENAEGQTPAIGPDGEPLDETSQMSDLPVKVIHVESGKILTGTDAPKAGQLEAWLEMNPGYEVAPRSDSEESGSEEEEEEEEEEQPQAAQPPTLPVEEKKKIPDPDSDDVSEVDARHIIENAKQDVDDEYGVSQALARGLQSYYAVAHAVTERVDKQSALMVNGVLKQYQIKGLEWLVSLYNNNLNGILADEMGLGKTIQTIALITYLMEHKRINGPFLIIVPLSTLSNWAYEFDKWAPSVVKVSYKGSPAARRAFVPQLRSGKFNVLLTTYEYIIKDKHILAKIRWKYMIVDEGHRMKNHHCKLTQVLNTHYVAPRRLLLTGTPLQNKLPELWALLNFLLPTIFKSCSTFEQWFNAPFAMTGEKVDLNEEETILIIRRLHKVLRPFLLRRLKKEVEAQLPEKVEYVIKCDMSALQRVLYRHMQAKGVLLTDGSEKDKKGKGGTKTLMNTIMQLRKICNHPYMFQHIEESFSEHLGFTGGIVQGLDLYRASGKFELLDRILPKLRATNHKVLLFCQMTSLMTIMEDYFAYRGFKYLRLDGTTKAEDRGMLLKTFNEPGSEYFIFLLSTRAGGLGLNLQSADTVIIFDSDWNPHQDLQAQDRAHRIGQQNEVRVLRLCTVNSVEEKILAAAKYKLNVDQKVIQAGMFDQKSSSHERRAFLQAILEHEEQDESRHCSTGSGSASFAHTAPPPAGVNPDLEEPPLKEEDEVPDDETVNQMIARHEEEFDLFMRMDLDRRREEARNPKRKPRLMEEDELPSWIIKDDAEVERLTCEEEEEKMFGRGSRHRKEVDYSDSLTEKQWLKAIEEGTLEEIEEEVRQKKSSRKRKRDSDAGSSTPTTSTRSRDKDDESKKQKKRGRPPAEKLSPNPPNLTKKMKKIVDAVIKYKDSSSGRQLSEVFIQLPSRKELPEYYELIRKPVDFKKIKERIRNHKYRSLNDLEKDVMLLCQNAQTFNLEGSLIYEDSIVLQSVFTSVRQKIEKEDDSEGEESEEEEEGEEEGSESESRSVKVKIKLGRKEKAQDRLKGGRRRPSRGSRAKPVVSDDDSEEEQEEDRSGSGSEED

T3 sequence (Q09472 whole entry): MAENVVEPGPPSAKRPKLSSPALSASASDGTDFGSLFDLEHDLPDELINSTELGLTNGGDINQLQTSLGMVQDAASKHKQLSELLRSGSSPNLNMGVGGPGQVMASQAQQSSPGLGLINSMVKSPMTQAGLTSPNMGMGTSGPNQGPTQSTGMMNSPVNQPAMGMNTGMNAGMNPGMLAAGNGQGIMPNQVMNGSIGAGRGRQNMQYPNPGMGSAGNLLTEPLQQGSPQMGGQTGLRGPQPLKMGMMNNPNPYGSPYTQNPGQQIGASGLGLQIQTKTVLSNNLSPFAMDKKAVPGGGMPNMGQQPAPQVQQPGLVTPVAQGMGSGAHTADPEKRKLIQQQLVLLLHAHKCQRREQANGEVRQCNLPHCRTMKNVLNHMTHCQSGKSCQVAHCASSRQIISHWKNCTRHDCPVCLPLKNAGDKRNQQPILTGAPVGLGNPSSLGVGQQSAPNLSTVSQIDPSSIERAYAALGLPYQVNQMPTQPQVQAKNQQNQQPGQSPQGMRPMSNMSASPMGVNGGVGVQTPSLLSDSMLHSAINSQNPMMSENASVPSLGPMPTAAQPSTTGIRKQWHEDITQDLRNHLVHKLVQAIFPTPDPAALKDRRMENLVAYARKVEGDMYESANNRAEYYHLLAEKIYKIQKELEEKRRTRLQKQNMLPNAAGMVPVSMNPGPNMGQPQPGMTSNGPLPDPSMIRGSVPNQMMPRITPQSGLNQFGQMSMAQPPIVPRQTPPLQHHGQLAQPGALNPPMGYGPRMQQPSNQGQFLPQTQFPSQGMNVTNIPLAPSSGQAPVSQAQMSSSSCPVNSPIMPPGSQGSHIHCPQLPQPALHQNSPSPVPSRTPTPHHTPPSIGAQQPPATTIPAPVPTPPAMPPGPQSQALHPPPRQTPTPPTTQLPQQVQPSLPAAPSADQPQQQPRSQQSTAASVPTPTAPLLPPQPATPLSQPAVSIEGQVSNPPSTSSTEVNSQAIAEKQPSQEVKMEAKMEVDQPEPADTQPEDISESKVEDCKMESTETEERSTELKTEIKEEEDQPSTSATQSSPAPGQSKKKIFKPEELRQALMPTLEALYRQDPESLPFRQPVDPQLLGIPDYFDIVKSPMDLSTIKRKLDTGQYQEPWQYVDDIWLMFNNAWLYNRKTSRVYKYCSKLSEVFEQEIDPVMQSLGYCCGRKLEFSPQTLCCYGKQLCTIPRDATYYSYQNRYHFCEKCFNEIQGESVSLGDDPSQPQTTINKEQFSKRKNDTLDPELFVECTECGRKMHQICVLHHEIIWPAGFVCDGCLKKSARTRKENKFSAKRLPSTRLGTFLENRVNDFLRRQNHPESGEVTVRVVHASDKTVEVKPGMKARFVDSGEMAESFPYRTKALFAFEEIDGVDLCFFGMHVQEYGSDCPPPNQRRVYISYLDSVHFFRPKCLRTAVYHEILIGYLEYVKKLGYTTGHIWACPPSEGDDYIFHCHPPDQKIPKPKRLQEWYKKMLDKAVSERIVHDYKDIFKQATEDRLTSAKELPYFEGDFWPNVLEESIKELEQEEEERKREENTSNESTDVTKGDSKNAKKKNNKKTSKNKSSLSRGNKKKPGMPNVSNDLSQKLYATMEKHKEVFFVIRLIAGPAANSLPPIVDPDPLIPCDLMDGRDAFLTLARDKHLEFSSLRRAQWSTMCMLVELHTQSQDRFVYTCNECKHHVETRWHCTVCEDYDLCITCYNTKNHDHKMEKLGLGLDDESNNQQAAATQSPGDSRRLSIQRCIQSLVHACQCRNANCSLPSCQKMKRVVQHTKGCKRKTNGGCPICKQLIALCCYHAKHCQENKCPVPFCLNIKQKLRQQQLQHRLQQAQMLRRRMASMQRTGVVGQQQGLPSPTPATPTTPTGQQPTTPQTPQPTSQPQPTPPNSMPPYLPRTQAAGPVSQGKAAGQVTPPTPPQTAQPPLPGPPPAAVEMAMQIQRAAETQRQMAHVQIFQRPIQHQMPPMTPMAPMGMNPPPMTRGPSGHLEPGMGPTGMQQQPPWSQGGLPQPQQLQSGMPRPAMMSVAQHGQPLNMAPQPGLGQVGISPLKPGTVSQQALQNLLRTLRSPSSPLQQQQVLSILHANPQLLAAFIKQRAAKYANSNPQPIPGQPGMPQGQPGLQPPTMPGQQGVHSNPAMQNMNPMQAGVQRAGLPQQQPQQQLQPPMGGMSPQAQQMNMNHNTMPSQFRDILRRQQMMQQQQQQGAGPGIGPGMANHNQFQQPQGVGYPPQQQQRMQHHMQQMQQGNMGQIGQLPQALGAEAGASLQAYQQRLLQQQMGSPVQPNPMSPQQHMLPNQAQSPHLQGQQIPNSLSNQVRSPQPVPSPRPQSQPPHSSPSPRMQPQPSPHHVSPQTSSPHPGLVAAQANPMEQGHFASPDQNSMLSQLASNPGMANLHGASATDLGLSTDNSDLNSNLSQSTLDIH

| Compound | affinity for BRD2-BD1 and BRD4-BD1 within a factor of the affinity for BRD3-BD1 [1] [factor] | Percent Control ATAD2A (ATAD2A) [%] | Percent Control BRD9 (BRD9) [%] | Percent Control EP300 (EP300) [%] | Percent Control SMARCA4 (SMARCA4) [%] | percent of control binding at 1 µM (ATAD2A) [%] | percent of control binding at 1 µM (BRD9) [%] | remaining binding at 1 µM (EP300; read-out: Percent Control EP300) [%] |
| --- | --- | --- | --- | --- | --- | --- | --- | --- |
| CC[C@H](C)[C@@H]1NC(=O)[C@H]([C@@H](C)O)NC(=O)[C@H](CCCCN)NC(=O)[C@H](Cc2c[nH]c3ccccc23)NC(=O)CSC[C@@H](C(N)=O)NC(=O)[C@H](CCC(N)=O)NC(=O)[C@H](CCCCNC(C)=O)NC(=O)[C@H]([C@@H](C)O)NC(=O)[C@H](CCCNC(=N)N)NC(=O)[C@H](Cc2c[nH]c3ccccc23)NC(=O)[C@H]([C@@H](C)O)NC(=O)[C@H](CCCCNC(C)=O)NC(=O)CNC(=O)[C@H](CCCCNC(C)=O)NC1=O [3.1B] ({CH2CO}-WKTIK(Ac)GK(Ac)TWRTK(Ac)QC-NH2; thioether N-14) | 2 to 4 | 92 | 100 | 100 | 77 |  |  |  |
| CC[C@H](C)[C@@H]1NC(=O)[C@H](Cc2c[nH]c3ccccc23)NC(=O)[C@H](Cc2c[nH]c3ccccc23)NC(=O)CSC[C@@H](C(N)=O)NC(=O)CNC(=O)[C@H](CCCCNC(C)=O)NC(=O)[C@H](CCCCN)NC(=O)[C@H](C(C)C)NC(=O)[C@H](CCCCNC(C)=O)NC(=O)[C@@H]2CCCN2C(=O)[C@H]([C@@H](C)CC)NC1=O [3.1C] ({CH2CO}-WWIIPK(Ac)VKK(Ac)GC-NH2; thioether N-11) | 2 to 4 | 92 | 95 | 100 | 87 |  |  |  |
| CC[C@H](C)[C@H](NC(=O)[C@H](CCCNC(=N)N)NC(=O)[C@H](CCCCNC(C)=O)NC(=O)[C@H](CCCNC(=N)N)NC(=O)[C@H](CC(C)C)NC(=O)[C@@H]1CSCC(=O)N[C@@H](Cc2c[nH]c3ccccc23)C(=O)N[C@@H](CCCCNC(C)=O)C(=O)NCC(=O)N[C@@H](Cc2ccc(O)cc2)C(=O)N[C@@H](CC(C)C)C(=O)N1)C(=O)N[C@@H](CCC(N)=O)C(=O)N[C@@H](CCCNC(=N)N)C(=O)N[C@H](C(=O)N[C@@H](Cc1ccc(O)cc1)C(=O)N[C@@H](CC(N)=O)C(N)=O)[C@@H](C)O [4.2C] ({CH2CO}-WK(Ac)GYLCLRK(Ac)RIQRTYN-NH2; thioether N-6) |  |  |  |  |  | 85 | 89 | 100 |
